From patent US10030006B2, “Coumarin based Hsp90 inhibitors with urea and ether substituents” (University of Kansas, priority 2013, dated 2018)
Where two headings read alike, the source gives them in different places.

Assays:
Format in all cases: cell-based
[1] = system: SKBr3 (estrogen receptor negative, Her2 over-expressing breast cancer cells); assay: Anti-proliferation assay (MTS/PMS, 72 h), SKBr3
[2] = system: MCF-7 (estrogen receptor positive breast cancer cells); assay: Anti-proliferation assay (MTS/PMS, 72 h), MCF-7
HCT-116 = assay: Anti-proliferation assay, HCT-116
How it was run: (§1)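 Viability after 72 h compound treatment at 37 °C was measured by MTS/PMS, normalised to 1% DMSO vehicle (100% proliferation). Cells plated at 2000/well and left overnight before dosing; DMSO 1% final. IC50 derived from separate experiments run in triplicate.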

PC-3 = assay: Anti-proliferation assay, PC-3; conditions: Prostate Cancer
How it was run: as §1

A-549 = assay: Anti-proliferation assay, A-549
How it was run: as §1

MDA1986 = assay: Anti-proliferation assay, MDA1986; conditions: HSNCC
How it was run: as §1

JMAR = assay: Anti-proliferation assay, JMAR; conditions: HSNCC
How it was run: as §1

MDAMB231 = assay: Anti-proliferation assay, MDAMB231; conditions: Tri-Neg
How it was run: as §1

DRO81-1 = assay: Anti-proliferation assay, DRO81-1; conditions: Thyroid
How it was run: as §1

BCPAP = assay: Anti-proliferation assay, BCPAP; conditions: Thyroid
Method: (§2) Cells were maintained in a 1:1 mixture of Advanced DMEM/F12 (Gibco) supplemented with non-essential amino acids, L-glutamine (2 mM), streptomycin (500 μg/mL), penicillin (100 units/mL), and 10% FBS. Cells were grown to confluence in a humidified atmosphere (37° C., 5% CO2), seeded (2000/well, 100 μL) in 96-well plates, and allowed to attach overnight. Compound at varying concentrations in DMSO (1% DMSO final concentration) was added, and cells were returned to the incubator for 72 h. At 72 h, the number of viable cells was determined using an MTS/PMS cell proliferation kit (Promega) per the manufacturer's instructions. Cells incubated in 1% DMSO were used at 100% proliferation, and values were adjusted accordingly. IC50 values were calculated from separate experiments performed in triplicate using GraphPad Prism.

MRC5 = assay: Anti-proliferation assay, MRC5 (normal); conditions: Homo sapiens, MRC5, Table 6, substituted phenyl ureas
How it was run: as §1

HMLE = assay: Anti-proliferation assay, HMLE (normal); conditions: HMLE, Table 6, substituted phenyl ureas
How it was run: as §1

[3] = system: SKBr3 and MCF-7 cell lines; assay: Anti-proliferative activity against both breast cancer cell lines (results in words); conditions: for anti-proliferative activity (in words): SKBr3 and MCF-7, Tables 1-5
Method: as §2
The anti-proliferative activity of these compounds is evaluated against two breast cancer cell lines, SKBr3 (estrogen receptor negative, Her2 over-expressing breast cancer cells) and MCF-7 (estrogen receptor positive breast cancer cells).

[4] = Homo sapiens, SK-BR-3, Table 2, modified benzamide and biphenylamide derivatives (in μM), read-out: SKBr3
[5] = Homo sapiens, MCF7, Table 2, modified benzamide and biphenylamide derivatives (in μM), read-out: MCF-7
[6] = Table 4, alkylamino analogues, read-out: SKBr3
[7] = Table 4, alkylamino analogues, read-out: MCF-7
[8] = Table 5, alkylether derivatives with cyclic N-substitutions, read-out: SKBr3
[9] = Table 5, alkylether derivatives with cyclic N-substitutions, read-out: MCF-7
[10] = Homo sapiens, SK-BR-3, Table 5, alkylether derivatives with cyclic N-substitutions, read-out: SKBr3
[11] = Homo sapiens, MCF7, Table 5, alkylether derivatives with cyclic N-substitutions, read-out: MCF-7
[12] = Table 9, non-aryl ureas, Breast Cancer, read-out: IC50 SKBr3
[13] = Table 9, non-aryl ureas, Breast Cancer, read-out: IC50 MCF-3

Compound	anti-proliferative activity (in words) [3]	IC50 (HCT-116; Table 9, non-aryl ureas) [µM]	IC50 (PC-3; Table 9, non-aryl ureas) [µM]	IC50 (A-549; Table 9, non-aryl ureas) [µM]	IC50 (MDA1986; Table 9, non-aryl ureas) [µM]	IC50 (JMAR; Table 9, non-aryl ureas) [µM]	IC50 (MDAMB231; Table 9, non-aryl ureas) [µM]	IC50 (DRO81-1; Table 9, non-aryl ureas) [µM]	IC50 (BCPAP; Table 9, non-aryl ureas) [µM]	other results
COc1cc(NC(=O)Nc2cc3ccc(OC4CCN(C)CC4)c(C)c3oc2=O)cc(OC)c1OC [3,4,5-trimethoxyl, 1-(8-methyl-7-((1-methylpiperidin-4-yl)oxy)-2-oxo-2H-chromen-3-yl)-3-(3,4,5-trimethoxyphenyl)urea]										IC50 ([1]; Homo sapiens, SK-BR-3, Table 6, substituted phenyl ureas, Breast Cancer, read-out: IC50 SKBr3): 4.26 µM; IC50 ([2]; Homo sapiens, MCF7, Table 6, substituted phenyl ureas, Breast Cancer, read-out: IC50 MCF-3): 1.3 µM; IC50 (HCT-116; Homo sapiens, HCT-116, Table 6, substituted phenyl ureas): 209 µM; IC50 (PC-3; Homo sapiens, PC-3, Table 6, substituted phenyl ureas): 4.5 µM; IC50 (A-549; Homo sapiens, A549, Table 6, substituted phenyl ureas): 13 µM; IC50 (MDA1986; MDA1986, Table 6, substituted phenyl ureas): 9.1 µM; IC50 (JMAR; JMAR, Table 6, substituted phenyl ureas): 1.7 µM; IC50 (MDAMB231; Homo sapiens, MDA-MB-231, Table 6, substituted phenyl ureas): 2.9 µM; IC50 (DRO81-1; Table 6, substituted phenyl ureas): 14.7 µM; IC50 (BCPAP; Homo sapiens, BCPAP, Table 6, substituted phenyl ureas): 1.32 µM; IC50 (MRC5): > 25 µM; IC50 (HMLE): > 25 µM
COc1cccc(-c2cc(C(=O)Nc3cc4ccc(OC5CCN(C)CC5)c(C)c4oc3=O)ccc2O)c1 [Compound 33a, 6-hydroxy-3′-methoxy-N-(8-methyl-7-(1-methylpiperidin-4-yloxy)-2-oxo-2H-chromen-3-yl)biphenyl-3-carboxamide]	maintains inhibitory activity									IC50 [1, 4]: 0.86 ± 0.16 µM; IC50 [2, 5]: 0.81 ± 0.14 µM
COc1ccc(C(=O)Nc2cc3ccc(OC4CCN(C)CC4)c(C)c3oc2=O)cc1-c1cccc(O)c1 [Compound 33b, 3′-hydroxy-6-methoxy-N-(8-methyl-7-(1-methylpiperidin-4-yloxy)-2-oxo-2H-chromen-3-yl)biphenyl-3-carboxamide]	increases activity almost three-fold									IC50 [1, 4]: 0.31 ± 0.04 µM; IC50 [2, 5]: 0.38 ± 0.08 µM
CCCN(CCC)CCCOc1ccc2cc(NC(=O)c3ccc(O)c(CC=C(C)C)c3)c(=O)oc2c1C [Compound 68e, N-(7-(3-(dipropylamino)propoxy)-8-methyl-2-oxo-2H-chromen-3-yl)-4-hydroxy-3-(3-methylbut-2-en-1-yl)benzamide]	did not show any activity at the highest concentration									IC50 ([1]; Homo sapiens, SK-BR-3, Table 4, alkylamino analogues, read-out: SKBr3): > 50 µM; IC50 ([2]; Homo sapiens, MCF7, Table 4, alkylamino analogues, read-out: MCF-7): > 50 µM
COC(=O)CNCCCOc1ccc2cc(NC(=O)c3ccc(O)c(CC=C(C)C)c3)c(=O)oc2c1C [Compound 68l]	decreased anti-proliferative activity									IC50 [1, 6]: 1.06 ± 0.11 µM; IC50 [2, 7]: 2.82 ± 0.27 µM
CC(C)=CCc1cc(C(=O)Nc2cc3ccc(OCCCNCC(=O)O)c(C)c3oc2=O)ccc1O [Compound 68m]	decreased anti-proliferative activity									IC50 [1, 6]: 7.57 ± 2.86 µM; IC50 [2, 7]: 18.1 ± 5.35 µM
CC(C)=CCc1cc(C(=O)Nc2cc3ccc(OCCCNCC(N)=O)c(C)c3oc2=O)ccc1O [Compound 68n]	decreased anti-proliferative activity									IC50 [1, 6]: 2.29 ± 0.47 µM; IC50 [2, 7]: 1.46 ± 0.35 µM
CC(C)=CCc1cc(C(=O)Nc2cc3ccc(OCCCNCCO)c(C)c3oc2=O)ccc1O [Compound 68o]	retains activity									IC50 [1, 6]: 0.61 ± 0.06 µM; IC50 [2, 7]: 1.56 ± 0.09 µM
CC(C)=CCc1cc(C(=O)Nc2cc3ccc(OCCCNc4ccccc4)c(C)c3oc2=O)ccc1O [Compound 70c]	inactive									IC50 [1, 8]: > 50 µM; IC50 [2, 9]: > 50 µM
CC(C)=CCc1cc(C(=O)Nc2cc3ccc(OCCCN(C)c4ccccc4)c(C)c3oc2=O)ccc1O [Compound 70d]	inactive									IC50 [1, 8]: > 50 µM; IC50 [2, 9]: > 50 µM
CC(C)=CCc1cc(C(=O)Nc2cc3ccc(OCCCN(C)Cc4ccccc4)c(C)c3oc2=O)ccc1O [Compound 70h, N-(7-(3-(benzyl(methyl)amino)propoxy)-8-methyl-2-oxo-2H-chromen-3-yl)-4-hydroxy-3-(3-methylbut-2-en-1-yl)benzamide]	greatly decreased activity									IC50 [1, 10]: 10.7 ± 0.49 µM; IC50 [2, 11]: 11.5 ± 4.16 µM
CC(C)=CCc1cc(C(=O)Nc2cc3ccc(OCCCNC45CC6CC(CC(C6)C4)C5)c(C)c3oc2=O)ccc1O [Compound 70j, N-(7-(3-((3S,5S,7S)-adamantan-1-ylamino)propoxy)-8-methyl-2-oxo-2H-chromen-3-yl)-4-hydroxy-3-(3-methylbut-2-en-1-yl)benzamide]	good anti-proliferative activity									IC50 [1, 10]: 0.31 ± 0.04 µM; IC50 [2, 11]: 0.32 ± 0.03 µM
Cc1c(OC2CCN(C)CC2)ccc2cc(NC(=O)Nc3ccccc3)c(=O)oc12 [H, 1-(8-methyl-7-((1-methylpiperidin-4-yl)oxy)-2-oxo-2H-chromen-3-yl)-3-phenylurea]										IC50 ([1]; Homo sapiens, SK-BR-3, amide versus urea linkage, read-out: IC50 for SKBr3): 0.77 µM; IC50 ([2]; Homo sapiens, MCF7, amide versus urea linkage, read-out: IC50 for MCF-3): 0.89 µM; increase in inhibition, urea versus amide linkage ([3]; text b189, two breast cancer cell lines): ~15 fold
Cc1c(OC2CCN(C)CC2)ccc2cc(NC(=O)NC(C)(C)C)c(=O)oc12 [drawing 157]		12.1 ± 0.61	4.54 ± 0.46	4.85 ± 0.29	21.5	2.1	3.8	> 25	2.57	IC50 [1, 12]: 3.96 ± 0.14 µM; IC50 [2, 13]: 1.77 ± 0.26 µM
Cc1c(OC2CCN(C)CC2)ccc2cc(NC(=O)N3CCN(C)CC3)c(=O)oc12 [drawing 158]		> 100	115	18.3 ± 12	> 25	> 25	> 25	> 25	> 25	IC50 [1, 12]: > 50 µM; IC50 [2, 13]: 32.1 ± 4.78 µM
Cc1c(OC2CCN(C)CC2)ccc2cc(NC(=O)NCc3ccccc3)c(=O)oc12 [drawing 159]		0.66 ± 0.15	0.87 ± 0.33	0.28 ± 0.03	14.4	> 25	7.9	14.6	0.045	
Cc1c(OC2CCN(C)CC2)ccc2cc(NC(=O)N(C)Cc3ccccc3)c(=O)oc12 [drawing 160]		183	28.7 ± 24.6	138	13.4	7.5	> 25	19.5	0.0084	
Cc1c(OC2CCN(C)CC2)ccc2cc(NC(=O)N(Cc3ccccc3)Cc3ccccc3)c(=O)oc12 [drawing 161]		5.95 ± 2.92	1.27 ± 0.09	3.57 ± 0.55	3.65	0.7	2.8	1.9	1.81	IC50 [1, 12]: 1.21 ± 0.02 µM; IC50 [2, 13]: 3.36 ± 0.16 µM
Cc1c(OC2CCN(C)CC2)ccc2cc(NC(=O)NC(c3ccccc3)c3ccccc3)c(=O)oc12 [drawing 162]		0.96 ± 0.16	1.12 ± 0.05	0.87 ± 0.21	7.1	5.9	4.3	1.3	5.76	IC50 [1, 12]: 0.49 ± 0.07 µM; IC50 [2, 13]: 0.54 ± 0.01 µM
